# Key:
# Type in all cases: in vivo
# [1] = system: morningglory (Ipomoea spp.); experiment: Test A pre-/postemergence plant response
# Method in brief: (§1)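 Injury scores (0, no effect; 100, complete control) come from visual comparison with untreated controls roughly ten days post-treatment. Test chemicals in a surfactant-containing non-phytotoxic solvent were applied as a directed soil spray preemergence and to one- to two-leaf seedlings postemergence.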
# [2] = system: large crabgrass (Digitaria sanguinalis); experiment: Test A pre-/postemergence plant response
# Method in brief: as §1
# [3] = system: wheat (Triticum aestivum); experiment: Test A pre-/postemergence plant response
# Method in brief: as §1
# [4] = system: velvetleaf (Abutilon theophrasti); experiment: Test A pre-/postemergence plant response
# Method in brief: as §1
# [5] = system: downy bromegrass (Bromus tectorum); experiment: Test B pre-/postemergence plant response
# Method in brief: (§2)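 Visual injury, 0–100 scale (100 = complete control), rated against controls after 13 to 15 days in greenhouse. Pre-emergence: seeds in loam/sand soil, treated at planting. Post-emergence: 1- to 4-leaf plants (2 to 18 cm) in peat/vermiculite medium. Compounds formulated in non-phytotoxic solvent with surfactant.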
# [6] = system: green foxtail (Setaria viridis); experiment: Test B pre-/postemergence plant response
# Method in brief: as §2
# [7] = system: cocklebur (Xanthium strumarium); experiment: Test B pre-/postemergence plant response
# Method in brief: as §2
# [8] = system: morningglory (Ipomoea coccinea); experiment: Test B pre-/postemergence plant response
# Method in brief: as §2
# [9] = system: giant foxtail (Setaria faberii); experiment: Test B pre-/postemergence plant response
# Method in brief: as §2
# kochia (Kochia scoparia) = experiment: Test B pre-/postemergence plant response
# Method in brief: as §2
# [10] = system: pigweed (Amaranthus retroflexus); experiment: Test B pre-/postemergence plant response
# Method in brief: as §2
# [11] = system: goosegrass (Eleusine indica); experiment: Test B pre-/postemergence plant response
# Method in brief: as §2
# [12] = system: wheat (Triticum aestivum); experiment: Test B pre-/postemergence plant response
# Method in brief: as §2
# [13] = Postemergence, 125 g ai/ha, visual injury, 0 to 100 scale (0 no effect, 100 complete control), approx. ten days
# [14] = Postemergence, 500 g ai/ha, 0 to 100 scale, 0 = no effect, 100 = complete control, approx. ten days
# [15] = Preemergence, 125 g ai/ha, 0 to 100 scale, 0 = no effect, 100 = complete control
# [16] = Preemergence, 500 g ai/ha, visual injury, 0 to 100 scale (0 no effect, 100 complete control), approx. ten days
# [17] = 250 g ai/ha, Preemergence, 0 to 100 scale
# [18] = Postemergence, 31 g ai/ha, scale 0 to 100 (0 no effect, 100 complete control)
# [19] = Postemergence, 62 g ai/ha, scale 0 (no effect) to 100 (complete control), 13 to 15 days
# [20] = Postemergence, 125 g ai/ha, visual rating after 13 to 15 days, scale 0 (no effect) to 100 (complete control)
# [21] = Postemergence, 250 g ai/ha, scale 0 to 100
# [22] = Preemergence, 31 g ai/ha, scale 0 to 100 (0 no effect, 100 complete control)
# [23] = Preemergence, 62 g ai/ha, scale 0 to 100, 0 no effect, 100 complete control
# [24] = Preemergence, 125 g ai/ha, 0 to 100 scale
structure (smiles),measurement,setting,value
O=C1CCCC(O)=C1C(=O)c1cnc(-c2ccccc2)n(-c2ccc(F)cc2)c1=O [Compound 24],Morningglory plant response rating,[1]; [13],70
same,"Plant response rating, Morningglory",[1]; [14],100
same,"Plant response rating, Morningglory",[1]; [15],20
same,"Plant response rating, Morningglory",[1]; [16],80
same,"Crabgrass, Large plant response rating",[2]; [13],70
same,"Plant response rating, Crabgrass, Large",[2]; [14],90
same,"Plant response rating, Crabgrass, Large",[2]; [15],30
same,"Plant response rating, Crabgrass, Large",[2]; [16],100
same,Wheat plant response rating,[3]; [13],0
same,"Plant response rating, Wheat",[3]; [14],30
same,"Plant response rating, Wheat",[3]; [15],0
same,"Plant response rating, Wheat",[3]; [16],20
same,Velvetleaf plant response rating,[4]; [13],100
same,"Plant response rating, Velvetleaf",[4]; [14],100
same,"Plant response rating, Velvetleaf",[4]; [15],90
same,"Plant response rating, Velvetleaf",[4]; [16],100
same,"Plant response rating, Bromegrass, Downy",[5]; [17],20
same,"Plant response rating, Bromegrass, Downy",[5]; [18],25
same,"Plant response rating, Bromegrass, Downy",[5]; [19],50
same,"Plant response rating, Bromegrass, Downy",[5]; [20],70
same,"Bromegrass, Downy plant response rating",[5]; [21],75
same,"Plant response rating, Bromegrass, Downy",[5]; [22],0
same,"Plant response rating, Bromegrass, Downy",[5]; [23],0
same,"Bromegrass, Downy plant response rating",[5]; [24],0
same,"Plant response rating, Foxtail, Green",[6]; [17],100
same,"Plant response rating, Foxtail, Green",[6]; [18],40
same,"Plant response rating, Foxtail, Green",[6]; [19],40
same,"Plant response rating, Foxtail, Green",[6]; [20],90
same,"Foxtail, Green plant response rating",[6]; [21],95
same,"Plant response rating, Foxtail, Green",[6]; [22],0
same,"Plant response rating, Foxtail, Green",[6]; [23],40
same,"Foxtail, Green plant response rating",[6]; [24],100
same,"Plant response rating, Cocklebur",[7]; [17],95
same,"Plant response rating, Cocklebur",[7]; [18],90
same,"Plant response rating, Cocklebur",[7]; [19],98
same,"Plant response rating, Cocklebur",[7]; [20],98
same,Cocklebur plant response rating,[7]; [21],100
same,"Plant response rating, Cocklebur",[7]; [22],10
same,Cocklebur plant response rating,[7]; [24],95
same,"Plant response rating, Morningglory",[8]; [17],100
same,"Plant response rating, Morningglory",[8]; [18],50
same,"Plant response rating, Morningglory",[8]; [19],60
same,"Plant response rating, Morningglory",[8]; [20],60
same,Morningglory plant response rating,[8]; [21],90
same,"Plant response rating, Morningglory",[8]; [22],100
same,"Plant response rating, Morningglory",[8]; [23],100
same,Morningglory plant response rating,[8]; [24],100
same,"Plant response rating, Foxtail, Giant",[9]; [17],100
same,"Plant response rating, Foxtail, Giant",[9]; [18],70
same,"Plant response rating, Foxtail, Giant",[9]; [19],85
same,"Plant response rating, Foxtail, Giant",[9]; [20],90
same,"Foxtail, Giant plant response rating",[9]; [21],95
same,"Plant response rating, Foxtail, Giant",[9]; [22],30
same,"Plant response rating, Foxtail, Giant",[9]; [23],85
same,"Foxtail, Giant plant response rating",[9]; [24],90
same,"Plant response rating, Kochia",kochia (Kochia scoparia); [17],100
same,"Plant response rating, Kochia",kochia (Kochia scoparia); [18],70
same,"Plant response rating, Kochia",kochia (Kochia scoparia); [19],70
same,"Plant response rating, Kochia",kochia (Kochia scoparia); [20],80
same,Kochia plant response rating,kochia (Kochia scoparia); [21],100
same,"Plant response rating, Kochia",kochia (Kochia scoparia); [22],100
same,"Plant response rating, Kochia",kochia (Kochia scoparia); [23],100
same,Kochia plant response rating,kochia (Kochia scoparia); [24],100
same,"Plant response rating, Pigweed",[10]; [17],100
same,"Plant response rating, Pigweed",[10]; [18],70
same,"Plant response rating, Pigweed",[10]; [19],80
same,"Plant response rating, Pigweed",[10]; [20],80
same,Pigweed plant response rating,[10]; [21],80
same,"Plant response rating, Pigweed",[10]; [22],98
same,"Plant response rating, Pigweed",[10]; [23],100
same,Pigweed plant response rating,[10]; [24],100
same,"Plant response rating, Goosegrass",[11]; [17],100
same,"Plant response rating, Goosegrass",[11]; [18],85
same,"Plant response rating, Goosegrass",[11]; [19],85
same,"Plant response rating, Goosegrass",[11]; [20],85
same,Goosegrass plant response rating,[11]; [21],98
same,"Plant response rating, Goosegrass",[11]; [22],85
same,Goosegrass plant response rating,[11]; [24],100
same,"Plant response rating, Wheat",[12]; [17],0
same,"Plant response rating, Wheat",[12]; [18],5
same,"Plant response rating, Wheat",[12]; [19],10
same,"Plant response rating, Wheat",[12]; [20],30
same,Wheat plant response rating,[12]; [21],50
same,"Plant response rating, Wheat",[12]; [22],0
same,"Plant response rating, Wheat",[12]; [23],0
same,Wheat plant response rating,[12]; [24],0

# Source: patent publication US8952024B2, “Herbicidal pyrimidone derivatives” (E I du Pont de Nemours and Company, priority 2009, dated 2015)
